Consider nine compounds from ChEMBL document CHEMBL1130756, “Synthesis and cytotoxic activity of novel 10-alkylated docetaxel analogs” (1998).

SMILES strings stand for the structures. Converted amounts (≈) assume the structure as drawn.

The subject of one experiment is P388. The experiment in a line: Concentration required to inhibit the growth of mouse leukemia (P388) cell lines by 50% on 72 h continuous exposure. The class given is functional. As to conditions: P388, 72 h.
Another experiment has as its system PC-6. The experiment in a line: Concentration required to inhibit the growth of human lung cancer (PC-6)cell lines by 50% on 72 hr continuous exposure. The class given is functional. The following applies: PC-6, 72 h.

With `CC(=O)O[C@@]12COC1C[C@H](O)[C@@]1(C)C(=O)[C@H](CCC(=O)O)C3=C(C)[C@@H](OC(=O)[C@H](O)[C@@H](NC(=O)OC(C)(C)C)c4ccccc4)C[C@@](O)([C@@H](OC(=O)c4ccccc4)[C@@H]12)C3(C)C` (stereo partly drawn), the GI50 in the experiment with P388 amounted to 1870 ng/mL (≈ 2.16 µM); with PC-6, 934 ng/mL (≈ 1.08 µM).

Turning to `CCOC(=O)CC[C@H]1C(=O)[C@]2(C)[C@@H](O)CC3OC[C@@]3(OC(C)=O)[C@H]2[C@H](OC(=O)c2ccccc2)[C@]2(O)C[C@H](OC(=O)[C@H](O)[C@@H](NC(=O)OC(C)(C)C)c3ccccc3)C(C)=C1C2(C)C` (stereo partly drawn), the GI50 worked out at 4.31 ng/mL (≈ 0.00483 µM) with P388 and 1.35 ng/mL (≈ 0.00151 µM) in the experiment on PC-6.

Take `CC(=O)O[C@@]12COC1C[C@H](O)[C@@]1(C)C(=O)[C@H](CCCN)C3=C(C)[C@@H](OC(=O)[C@H](O)[C@@H](NC(=O)OC(C)(C)C)c4ccccc4)C[C@@](O)([C@@H](OC(=O)c4ccccc4)[C@@H]12)C3(C)C` (stereo partly drawn): the values for the 50% growth inhibitory concentration (GI50) in the experiment with P388 and in the experiment on PC-6 were 1520 ng/mL (≈ 1.79 µM) and 236 ng/mL (≈ 0.278 µM), respectively.

With `CC(=O)NCCC[C@H]1C(=O)[C@]2(C)[C@@H](O)CC3OC[C@@]3(OC(C)=O)[C@H]2[C@H](OC(=O)c2ccccc2)[C@]2(O)C[C@H](OC(=O)[C@H](O)[C@@H](NC(=O)OC(C)(C)C)c3ccccc3)C(C)=C1C2(C)C` (stereo partly drawn), the GI50 in the experiment with P388 was 71.8 ng/mL (≈ 0.0806 µM); with PC-6, 10.5 ng/mL (≈ 0.0118 µM).

Turning to `CC(=O)O[C@@]12COC1C[C@H](O)[C@@]1(C)C(=O)[C@H](CCC#N)C3=C(C)[C@@H](OC(=O)[C@H](O)[C@@H](NC(=O)OC(C)(C)C)c4ccccc4)C[C@@](O)([C@@H](OC(=O)c4ccccc4)[C@@H]12)C3(C)C` (stereo partly drawn), the GI50 was determined as 18.4 ng/mL (≈ 0.0218 µM) with P388 and 0.681 ng/mL (≈ 0.000806 µM) in the experiment on PC-6.

In the case of `COC(=O)CC[C@H]1C(=O)[C@]2(C)[C@@H](O)CC3OC[C@@]3(OC(C)=O)[C@H]2[C@H](OC(=O)c2ccccc2)[C@]2(O)C[C@H](OC(=O)[C@H](O)[C@@H](NC(=O)OC(C)(C)C)c3ccccc3)C(C)=C1C2(C)C` (stereo partly drawn), the GI50 in the experiment on P388 turned out to be 3.3 ng/mL (≈ 0.00376 µM); in the experiment with PC-6 it was 0.771 ng/mL (≈ 0.000878 µM).

On to `CC(=O)O[C@@]12COC1C[C@H](O)[C@@]1(C)C(=O)[C@H](CCCO)C3=C(C)[C@@H](OC(=O)[C@H](O)[C@@H](NC(=O)OC(C)(C)C)c4ccccc4)C[C@@](O)([C@@H](OC(=O)c4ccccc4)[C@@H]12)C3(C)C` (stereo partly drawn), for which the GI50 was determined as 15.5 ng/mL (≈ 0.0182 µM) with P388 and 0.777 ng/mL (≈ 0.000914 µM) in the experiment with PC-6.

Consider `CC(=O)CC[C@H]1C(=O)[C@]2(C)[C@@H](O)CC3OC[C@@]3(OC(C)=O)[C@H]2[C@H](OC(=O)c2ccccc2)[C@]2(O)C[C@H](OC(=O)[C@H](O)[C@@H](NC(=O)OC(C)(C)C)c3ccccc3)C(C)=C1C2(C)C` (stereo partly drawn), for which the figures for the GI50 in the experiment on P388 and with PC-6 were 7.12 ng/mL (≈ 0.00826 µM) and 0.266 ng/mL (≈ 0.000309 µM), respectively.

As for `CC(=O)O[C@@]12CO[C@@H]1C[C@H](O)[C@@]1(C)C(=O)[C@H](O)C3=C(C)[C@@H](OC(=O)[C@H](O)[C@@H](NC(=O)OC(C)(C)C)c4ccccc4)C[C@@](O)([C@@H](OC(=O)c4ccccc4)[C@H]21)C3(C)C.O.O.O` [DOCETAXEL], the results for the GI50 in the experiment on P388 and with PC-6 were 6.74 ng/mL and 1.13 ng/mL, respectively.

For orientation: GI50 means the concentration giving 50% growth inhibition.
